In patent US7547697B2, “Alkyl-pyridazine derivatives as 11b-HSD1 inhibitors” (Hoffmann-La Roche Inc., priority 2006, dated 2009):

Target: T1, human 11beta-HSD1 (Homo sapiens, UniProt P28845)
T1 construct: expressed in transfected cells; host or cells: HEK293 cells (ATCC CRL-1573), transient transfection with pcDNA3 construct; microsomal fraction used
Assay: Microsome assay (cortisone to cortisol conversion, ELISA detection)
Assay type: biochemical
Conditions: microsomes from HEK293 cells transiently expressing human 11beta-HSD1; cortisone 50-200 nM, NADPH 1 mM, 60 min at 37° C.; read-out: h 11-beta-HSD 1 IC50
Protocol: The cDNA encoding the human 11beta-HSD1 protein was cloned into the expression vector pcDNA3 ([…]). This construct (for details see Alex Odermatt et al.; J Biol Chem., 1999, Vol. 274, Issue 40, 28762-28770) was used to transiently express the protein in HEK293 cells (ATCC number: CRL-1573, described in Graham, F. L., Smiley, J., Russell, W. C., Nairn, R.; (1977)) using lipofectamine. 48h after transfection cells were washed twice with ice-cold PBS (Phosphate buffered Saline). To 1 volume of cell suspension in PBS 2 volumes of ice-cold lysis buffer (50 mM Tris; pH 7.5; 1 mM EDTA; 100 mM NaCl) were added. The cells were lysed by Potter-homogenization (20 strokes). The resulting homogenate was sonicated with a tip sonicator (10% output; 2×30 sec.) and cleared by a low speed centrifugation (10 min×9000 g; 4° C.). The microsomal fraction was collected by a high speed centrifugation (60 min×110,000 g). […]
Microsomes isolated from HEK293 cells transiently expressing human 11beta-HSD1 (for details see above) were incubated in assay buffer (100 mM NaCl; 1 mM EDTA; 1 mM EGTA; 1 mM MgCl; 250 mM Sucrose; 20 mM Tris pH 7.4; Cortisone 50-200 nM and NADPH 1 mM) together with different concentrations of test substances. […] The amount of Cortisol produced in this assay was determined using a commercially available, ELISA-based Cortisol-detection kit (Distributed by Assay Design, Inc.). […]

T1 sequence (P28845 whole entry): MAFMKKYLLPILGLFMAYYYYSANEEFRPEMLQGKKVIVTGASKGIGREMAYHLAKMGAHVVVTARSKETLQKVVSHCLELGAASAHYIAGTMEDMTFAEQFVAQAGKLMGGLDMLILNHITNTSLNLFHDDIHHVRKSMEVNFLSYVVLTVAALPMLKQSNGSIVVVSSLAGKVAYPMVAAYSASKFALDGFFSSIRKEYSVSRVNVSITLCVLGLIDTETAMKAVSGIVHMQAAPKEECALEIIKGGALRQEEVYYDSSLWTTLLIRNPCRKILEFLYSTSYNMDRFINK

Compound	IC50 [µM]
CC(C)(C)Cc1cc2c(nn1)CCCCCC2 [Example 1, 3-(2,2-Dimethyl-propyl)-5,6,7,8,9,10-hexahydro-cycloocta[c]pyridazine]	0.006
CC(C)(C)Cc1cc2c(nn1)[C@@]1(C)CC[C@@H]2C1(C)C [Example 3, (1S,8R)-5-(2,2-Dimethyl-propyl)-1,11,11-trimethyl-3,4-diaza-tricyclo[6.2.1.0^2,7]undeca-2,4,6-triene]	0.014
